Patent US9796676B2, “Honeybee repellents and uses thereof” (Inscent, Inc., priority 2013, dated 2017)

Experiments:
OBP2 = assay: Fluorescent-quench ligand-protein-binding assay (OBP2 binding); set-up: species or system Apis mellifera
Excerpt: To identify a honeybee repellent disclosed herein, candidate compounds were screened based upon the fact that 2-heptanone is an established repellent of bees. 2-heptanone is thought to mediate its behavioral response through binding to a specific odorant-binding protein called OBP2. […] Such assays are generally known in the art. See, e.g., Briand, et al., Ligand-Binding Properties and Structural Characterization of a Novel Rat Odorant-Binding Protein Variant, Eur. J. Biochem. 267(10): 3079-3089 (2000); Briand, et al., Ligand Binding and Physico-Chemical Properties of ASP2, A Recombinant Odorant-Binding Protein From Honeybee (Apis mellifera L.), Eur. J. Biochem. 268(3): 752-760 (2001); Briand, et al., Characterization of a Chemosensory Protein (ASP3c) from Honeybee (Apis mellifera L.) as a Brood Pheromone Carrier, Eur. J. Biochem. 269(18): 4586-4596 (2002), each of which is hereby incorporated by reference in its entirety.

[1] = tested on: Apis mellifera Carniolan foraging worker honeybees; assay: Proboscis extension response (PER) assay with bees conditioned to 2-heptanone; type: in vivo; details: 0.5% compound in Triton X-100/water on filter paper, 4 s exposure; only bees giving PER with 2-heptanone and not with water or 15% Triton X-100 controls counted
Experimental: To determine whether a living honeybee can recognize a candidate compound, these compounds were tested using a proboscis extension response (PER) assay using classical conditioning approaches. Proboscis extension response conditioning is a case of appetitive learning, in which bees learn to associate odor stimuli with sucrose reward in the laboratory. In this case, bees were conditioned to produce a PER to 2-heptanone as the conditioned stimulus and a sugar reward as the unconditioned stimulus. These trained bees were then exposed to an odor pulse of a candidate compound to test whether a candidate compound would also produce a PER. If the candidate compound “mimics” 2-heptanone then the honeybee will extend its proboscis.
For conditioning procedures, Apis mellifera Carniolan foraging worker honeybees were obtained from a local apiary (typically 60 bees per shipment). The honeybees were held overnight in insect cages with food and water freely available, in an environmentally controlled room on a light cycle similar to the ambient cycle at the time of the assay.
For conditioning procedures, all tests were done in an odorant delivery apparatus set inside a fume hood. The apparatus comprised a set of open-ended, horizontal, 3 cm diameter by 10 cm long plastic tubes. Each tube was designed where a honeybee could be positioned at the distal end of a tube, with the opening at the other end of the tube located proximal to an inlet of the fume hood. To deliver an odorant, room air was pumped by a diaphragm pump through a particle filter via 0.25 inch plastic tubing at approximately 0.7 m/sec. The air flow passes into the headspace above an odorant (0.5% [v/v] 2-heptanone dissolved in odorless light paraffin oil) contained in a 100 mL bottle. The headspace air then passes through another plastic tube to a manifold of 4-way valves, each of which was attached near the proximal end of a plastic tube containing a bee. Each bee was exposed separately for a desired time period to the odorant by opening and closing the appropriate valve. When each valve was closed, the odor was flushed away immediately by the continuous fume hood air stream.
To train a honeybee to respond to a conditioned and unconditioned stimuli, bees were placed, without anesthesia, in individual 1.5 mL micro-centrifuge holding tubes and held overnight without access to food or water. The holding tubes containing the starved bees were placed in racks in groups of eight. One rack at a time was placed behind the odorant delivery apparatus so that each bee's head is centered at the distal end of a horizontal plastic tube. Each bee was exposed to the 2-heptanone odorant alone for four seconds, and then while being fed an 80% sucrose solution for and additional three seconds. The sucrose solution was delivered on a piece of saturated filter paper held in forceps. […] Positive and negative responses were recorded. A positive PER was scored when a bee extended its proboscis before the sucrose appeared. In a typical trial, 48 individual bees were subjected to conditioning.
After conditioning, honeybees were tested with the candidate compounds the same day or on the following day or, most commonly, both. When held overnight, bees were fed with sucrose and kept in their holding tubes. When tested the day after training, bees were given one or more rounds of conditioning with 2-heptatone to refresh their memories. Candidate compounds stocks were made at 5% (w/v) in polyoxyethylene octyl phenyl ether (TRITON® X-100), a non-ionic detergent/surfactant, and stored at 4° C. […] Test solutions were made fresh daily by mixing stock solutions with water for a final compound concentration of 0.5%. A solution of 0.5% 2-heptanone in paraffin oil was used as a positive control.

SMILES	OBP2 binding characteristic of compound (OBP2)	2-heptanone positive bees testing positive to compound [1] [%]
CCOC(=O)CSc1nc2c(c(=O)n1-c1ccccc1)C1(CCCC1)Cc1ccccc1-2 [compound 71]	Moderate (Moderate, indicates that 50% or less of the compound bound to OBP2.)	19.1
O=C1CSC(=O)N1CC(O)Cn1c2ccc(Cl)cc2c2cc(Cl)ccc21 (centres unmarked) [compound 72]	Moderate (Moderate, indicates that 50% or less of the compound bound to OBP2.)	2.3
O=C(c1ccccc1)N1N=C(C(F)(F)F)CC1(O)c1ccccc1O (centres unmarked) [compound 73]	Moderate (Moderate, indicates that 50% or less of the compound bound to OBP2.)	8.3
c1ccn(-c2ncnc3sc4c(c23)CCCC4)c1 [compound 77]	Moderate (Moderate, indicates that 50% or less of the compound bound to OBP2.)	14.3
CCOC(=O)c1c(-c2ccccc2)csc1NC(=S)NC(C)=O [compound 78]	Moderate (Moderate, indicates that 50% or less of the compound bound to OBP2.)	7.7
Cc1cc(C)c(O)c(N=Cc2cc(I)cc(I)c2O)c1 [compound 82]	Moderate (Moderate, indicates that 50% or less of the compound bound to OBP2.)	6.4
COc1ccc2ccccc2c1C=Nc1cc(C)ccc1C [compound 84]	Moderate (Moderate, indicates that 50% or less of the compound bound to OBP2.)	27.9
O=C1NC(=S)SC1=Cc1ccc(N2CCOCC2)c([N+](=O)[O-])c1 [compound 85]	Moderate (Moderate, indicates that 50% or less of the compound bound to OBP2.)	18.0
Oc1ccc(Br)cc1C=Nc1ccc(NCc2ccccc2)cc1 [compound 87]	Moderate (Moderate, indicates that 50% or less of the compound bound to OBP2.)	9.5
O=C1c2ccccc2C(=O)c2c1ccc1c(=O)n(C3CCCCC3)[nH]c21 [compound 88]	Moderate (Moderate, indicates that 50% or less of the compound bound to OBP2.)	14.3
Cc1cc(C)c2ccc(C=Cc3ccccc3N)nc2c1O [compound 90]	Moderate (Moderate, indicates that 50% or less of the compound bound to OBP2.)	17.0
C=CCN1C(=O)C(=Cc2cccc([N+](=O)[O-])c2O)SC1=S [compound 91]	Moderate (Moderate, indicates that 50% or less of the compound bound to OBP2.)	17.3
C(=NN(c1ccccc1)c1ccccc1)c1ccncc1 [compound 92]	Moderate (Moderate, indicates that 50% or less of the compound bound to OBP2.)	7.0
O=C1CCC(=O)N1CC(O)Cn1c2ccc(Br)cc2c2cc(Br)ccc21 (centres unmarked) [compound 93]	Moderate (Moderate, indicates that 50% or less of the compound bound to OBP2.)	14.0
NC(=O)c1ccccc1NC(=O)c1sc2ccccc2c1Cl [compound 94]	Moderate (Moderate, indicates that 50% or less of the compound bound to OBP2.)	16.7
CC(C)CCn1c(=O)c(C(=O)NCc2ccco2)c(O)c2ccccc21 [compound 95]	Moderate (Moderate, indicates that 50% or less of the compound bound to OBP2.)	7.3

SMILES	OBP2 binding characteristic of compound (OBP2)	2-heptanone positive bees testing positive to compound [1] [%]
Oc1c(I)cc2oc3c(c2c1C=Nc1nc[nH]n1)CCCC3 [compound 96]	Moderate (Moderate, indicates that 50% or less of the compound bound to OBP2.)	28.6
CCN(CC)C(=O)c1c(NC(=O)c2ccco2)sc2c1CCCCC2 [compound 97]	Moderate (Moderate, indicates that 50% or less of the compound bound to OBP2.)	21.1
Cc1ccc(NC(=O)c2c(NC(=O)c3ccco3)sc3c2CCCCC3)cc1 [compound 98]	Moderate (Moderate, indicates that 50% or less of the compound bound to OBP2.)	21.6
O=C(Nc1sc2c(c1C(=O)N1CCCCC1)CCCCC2)c1ccccc1 [compound 99]	Moderate (Moderate, indicates that 50% or less of the compound bound to OBP2.)	29.0
CCOC(=O)c1ccc(N2NC(=O)C(=Cc3ccc(N4CCOCC4)cc3)C2=O)cc1 [compound 101]	Moderate (Moderate, indicates that 50% or less of the compound bound to OBP2.)	20.9
Cc1[nH]c2ccccc2c1C=NNC(=O)c1cccc(I)c1 [compound 103]	Moderate (Moderate, indicates that 50% or less of the compound bound to OBP2.)	32.4
O=C1C=Cc2ccccc2C1=NNc1ccc2c(c1)OCCO2 [compound 105]	Moderate (Moderate, indicates that 50% or less of the compound bound to OBP2.)	24.3
Clc1ccccc1-c1nnc(SCc2ccccc2)o1 [compound 106]	Moderate (Moderate, indicates that 50% or less of the compound bound to OBP2.)	7.3
COc1ccccc1NC(=S)NC(=O)c1ccc(F)cc1 [compound 107]	Moderate (Moderate, indicates that 50% or less of the compound bound to OBP2.)	5.1
O=c1nc(C(F)(F)F)cc(C=Cc2ccc(-c3cccc(Cl)c3)o2)[nH]1 [compound 108]	Moderate (Moderate, indicates that 50% or less of the compound bound to OBP2.)	16.2
Nc1cccc2nc3c4cccc5cccc(c(=O)n3c12)c54 [compound 109]	Moderate (Moderate, indicates that 50% or less of the compound bound to OBP2.)	12.1
O=C(C=CNc1ccccc1O)c1ccc(Br)cc1 [compound 110]	Moderate (Moderate, indicates that 50% or less of the compound bound to OBP2.)	31.4
O=C1CSC(=CC(=O)c2ccc(Cl)cc2)N1 [compound 111]	Moderate (Moderate, indicates that 50% or less of the compound bound to OBP2.)	30.6
O=c1c2cc(O)cc3cccc(c32)c2nc3ccc4c5c(ccc(c35)n12)CC4 [compound 112]	Moderate (Moderate, indicates that 50% or less of the compound bound to OBP2.)	44.4
O=C(NC(=S)Nc1cccc2cccnc12)c1cccs1 [compound 117]	Moderate (Moderate, indicates that 50% or less of the compound bound to OBP2.)	–
COc1cccc(C=C2SC(=N)NC2=O)c1OCc1ccc(Cl)cc1Cl [compound 118]	Moderate (Moderate, indicates that 50% or less of the compound bound to OBP2.)	–
